# Measured values: US9067974B2, “Polymyxin derivatives and uses thereof” (priority 2006, dated 2015)
# Bridge positions count the residues as written; N and C are the ends. Square brackets hold non-standard residues; d marks the D form. Peptide text beside a SMILES is read from it. * marks the point of attachment. Octanoyl = CCCCCCCC(=O)*; Dab = NCC[C@H](N)C(=O)O; Abu = CC[C@H](N)C(=O)O
# What was measured:
# [1] = Two-week intravenous toxicity study in young rats; assay type: in vivo
# Method: Toxicity in young rats (weighing approx. 150 g in the beginning of the study) was determined by administering doses (1, 2, 4, 8, 16, and 32 mg/kg per day) of NAB7061 as well as the control compound polymyxin B intravenously twice (2) a day for two weeks. A group of ten (10) rats was studied for each dosis regimen. Clinical observations were made daily, the body weight measured twice weekly, and the food consumption twice weekly. In the end of week 2, all animals were sacrificed.
# Histopathology of kidneys was performed for each animals and histopathology of all tissues was performed in three high-dose groups receiving NAB7061.
# [2] = system: Pseudomonas aeruginosa ATCC 27853; assay: Well diffusion growth inhibition on LB agar plates (direct antibacterial activity); assay type: cell-based; conditions: Ps. aeruginosa ATCC 27853
# In short: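 Pseudomonas aeruginosa ATCC 27853 was tested for direct antibacterial susceptibility by agar well diffusion. A suspension of about 10^8 cells/ml in 0.9% NaCl was spread over LB agar and the excess removed. After drying, 2 mm wells were drilled and filled with compound dissolved in 0.9% NaCl, with NaCl alone as control. Plates were incubated 18 h at 37° C, and inhibition zone diameters were measured and converted to areas in square mm.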
# [3] = system: Acinetobacter baumannii ATCC 19606; assay: as above; assay type: cell-based; conditions: A. baumannii ATCC 19606
# In short: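 Direct antibacterial activity against Acinetobacter baumannii ATCC 19606 was measured by agar well diffusion on LB plates. The plates were flooded with a suspension of approx. 10^8 cells/ml in 0.9% NaCl, and the excess was removed. Once the surface dried, five wells of 2 mm diameter were drilled per plate. The wells were filled with test compound dissolved in 0.9% NaCl, with plain 0.9% NaCl as control. After 18 h at 37° C., inhibition zone diameters were measured and converted to growth inhibition areas in square mm.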
# E. cloacae F230 = assay: E-test MIC of antibiotics on Mueller-Hinton agar with or without NAB7061 (4 μg/ml); sensitization factor = MIC ratio absence/presence; assay type: cell-based, Enterobacter cloacae
# Method: (§1) MICs were determined by using E-strips (Biodisk Ltd., Solna, Sweden) according to the manufacturer's instructions.
# (§2) The strains originated from ATCC (11 strains), CCUG (11 strains), and NCTC (The National Collection of Type Cultures, Colindale, U.K.; 2 strains). Eight strains (the F-strains) were purchased from Mobidiag Ltd., Helsinki, Finland. The source of E. coli IH3080 has been given in Example 2. Sensitization factor was defined as in Example 7.
# E. cloacae F232 = assay: as above; assay type: cell-based, Enterobacter cloacae
# Method: as §1, §2
# E. cloacae CCUG52947 = assay: as above; assay type: cell-based, Enterobacter cloacae
# Method: as §1, §2
# [4] = system: three strains of A. baumannii; assay: E-test sensitization by NAB7061 (4 μg/ml), summary over A. baumannii strains; assay type: cell-based, Acinetobacter baumannii
# Source text: as §2
# Strains of K. pneumoniae remained somewhat more resistant to both antibiotics, and the sensitization factors varied between 10 and 500.
# [5] = system: Ps. aeruginosa ATCC 27853; assay: Sensitization to rifampin: well diffusion growth inhibition on LB plates containing rifampin; assay type: cell-based, Pseudomonas aeruginosa; conditions: 4 μg of compound
# K. pneumoniae F144 = assay: E-test MIC of antibiotics on Mueller-Hinton agar with or without NAB7061 (4 μg/ml); sensitization factor = MIC ratio absence/presence; assay type: cell-based, Klebsiella pneumoniae
# Method: as §1, §2
# K. pneumoniae CCUG45421 = assay: as above; assay type: cell-based, Klebsiella pneumoniae; conditions: NAB 7061 4 μg/ml
# Method: as §1, §2
# K. pneumoniae F145 = assay: as above; assay type: cell-based, Klebsiella pneumoniae
# Method: as §1, §2
# K. pneumoniae F136 = assay: as above; assay type: cell-based, Klebsiella pneumoniae
# Method: as §1, §2
structure (smiles),measurement,setting,value
"CCCCCCCC(=O)N[C@H](C(=O)N[C@@H](CC)C(=O)N[C@H]1CCNC(=O)[C@H]([C@@H](C)O)NC(=O)[C@H](CCN)NC(=O)[C@H](CCN)NC(=O)[C@H](CC(C)C)NC(=O)[C@@H](Cc2ccccc2)NC(=O)[C@H](CCN)NC1=O)[C@@H](C)O [NAB 7061, OA-Thr-Abu-cy[Dab-Dab-DPhe-Leu-Dab-Dab-Thr-]] (Octanoyl-T[Abu][Dab][Dab][dF]L[Dab][Dab]T; lactam 3-C)",Rise of blood urea nitrogen (BUN) versus control or low dose group,"[1]; rat, in vivo, 16 mg/kg/day",no such a rise was found
same,Lowest dose that negatively influenced the body weight gain,"[1]; rat, in vivo, iv",8 mg/kg per day
same,Survival throughout the study,"[1]; rats, doses 1 to 32 mg/kg per day intravenously for two weeks",all rats receiving NAB7061 remained alive throughout the study
same,General pathology and histopathology of organs and kidneys,"[1]; rats, two weeks intravenous dosing",No NAB7061-related pathological findings were found
same,Antibacterial activity (growth inhibition area around a well),[2]; 4 μg per well,0 square millimeters
same,Antibacterial activity (growth inhibition area around a well),[2]; 10 μg per well,0 square millimeters
same,Antibacterial activity (growth inhibition area around a well),[3]; 4 μg per well,0 square millimeters
same,Antibacterial activity (growth inhibition area around a well),[3]; 10 μg per well,0 square millimeters
same,MIC of clarithromycin in the presence of 4 μg/ml of NAB 7061,E. cloacae F230,0.047 µg/mL
same,MIC of rifampin in the presence of 4 μg/ml of NAB 7061,E. cloacae F230,0.016 to 0.032 µg/mL
same,MIC of clarithromycin in the presence of 4 μg/ml of NAB 7061,E. cloacae F232,0.094 µg/mL
same,MIC of rifampin in the presence of 4 μg/ml of NAB 7061,E. cloacae F232,0.023 µg/mL
same,MIC of rifampin in the presence of 4 μg/ml of NAB 7061,E. cloacae CCUG52947,0.032 to 0.047 µg/mL
same,Sensitization factor to rifampin,E. cloacae CCUG52947; NAB 7061 4 μg/ml,500-1000
same,Resulting MIC to rifampin in the presence of NAB7061 (4 μg/ml),[4],≤ 0.125 µg/mL
same,Antibacterial activity in the presence of rifampin (growth inhibition area around a well),[5]; rifampin 0 μg/ml,0 square millimeters
same,Antibacterial activity in the presence of rifampin (growth inhibition area around a well),[5]; rifampin 0.1 μg/ml,0 square millimeters
same,Antibacterial activity in the presence of rifampin (growth inhibition area around a well),[5]; rifampin 0.3 μg/ml,0 square millimeters
same,MIC of rifampin in the presence of 4 μg/ml of NAB 7061,K. pneumoniae F144,0.19 µg/mL
same,Sensitization factor to rifampin,K. pneumoniae F144; NAB 7061 4 μg/ml,>170
same,Sensitization factor to rifampin,K. pneumoniae CCUG45421,10-20
same,MIC of clarithromycin in the presence of 4 μg/ml of NAB 7061,K. pneumoniae F145,0.25 µg/mL
same,MIC of rifampin in the presence of 4 μg/ml of NAB 7061,K. pneumoniae F145,0.19 to 0.25 µg/mL
same,MIC of clarithromycin in the presence of 4 μg/ml of NAB 7061,K. pneumoniae F136,2 µg/mL
same,MIC of rifampin in the presence of 4 μg/ml of NAB 7061,K. pneumoniae F136,0.75 µg/mL
